Results on one compound are retold here after patent US8236785B2, “Method of treating or preventing infertility in a female mammal and pharmaceutical kit for use in such method” (Pantarhei Bioscience B.V., priority 2007, dated 2012).

Data set [1] has as its system premature LH-surge. Kind of data set: Open-label uncontrolled clinical trial of premature LH-surge prevention in women undergoing COH/IVF. In kind it is in vivo. The note with it: daily oral 40 mg. On the procedure: An open-label, uncontrolled, single centre clinical trial is performed to investigate the efficacy, safety and tolerability of premature LH-surge prevention in 10 women undergoing IVF treatment for infertility by Controlled Ovarian Hyperstimulation (COH), using a daily oral dosage of 40 mg estetrol (E4) from day 6 of FSH treatment up to and including the day of hCG administration to resume meiosis and induce lutëinisation. Oocytes are retrieved 30-38 hours after hCG administration, fertilised in vitro and two days later no more than two embryos are transferred to the uterus of the patient. Standard luteal support is prescribed.
Ultrasonographic monitoring of follicle growth and endometrial thickness are performed during this treatment procedure including extensive and repeated hormonal analysis and measurement of E4 levels extending into the luteal phase after embryo transfer.

In data set [2] the test system is premature LH-surge. Kind of data set: Randomised controlled dose-finding clinical trial of premature LH-surge prevention in COH/IVF, E4 versus ganirelix. It is filed as in vivo, women. As to the method: An open-label, randomised, controlled, dose-finding, multi-centre clinical trial is performed to investigate and compare the efficacy, safety and tolerability of premature LH-surge prevention in women undergoing COH/IVF using either E4 in an oral dosage of 1, 5, 10, 20, 40 or 80 mg per day or a daily subcutaneous injection of 0.25 mg ganirelix. Group size is 30 women, so in total 210 patients participate in the trial. E4/ganirelix treatment is started on day 6 of FSH treatment up to and including the day of hCG administration. Further procedures are similar to example 1.

The next data set has as its target T1, ERα receptor (Homo sapiens, UniProt P03372).
T1 sequence (P03372 1-595): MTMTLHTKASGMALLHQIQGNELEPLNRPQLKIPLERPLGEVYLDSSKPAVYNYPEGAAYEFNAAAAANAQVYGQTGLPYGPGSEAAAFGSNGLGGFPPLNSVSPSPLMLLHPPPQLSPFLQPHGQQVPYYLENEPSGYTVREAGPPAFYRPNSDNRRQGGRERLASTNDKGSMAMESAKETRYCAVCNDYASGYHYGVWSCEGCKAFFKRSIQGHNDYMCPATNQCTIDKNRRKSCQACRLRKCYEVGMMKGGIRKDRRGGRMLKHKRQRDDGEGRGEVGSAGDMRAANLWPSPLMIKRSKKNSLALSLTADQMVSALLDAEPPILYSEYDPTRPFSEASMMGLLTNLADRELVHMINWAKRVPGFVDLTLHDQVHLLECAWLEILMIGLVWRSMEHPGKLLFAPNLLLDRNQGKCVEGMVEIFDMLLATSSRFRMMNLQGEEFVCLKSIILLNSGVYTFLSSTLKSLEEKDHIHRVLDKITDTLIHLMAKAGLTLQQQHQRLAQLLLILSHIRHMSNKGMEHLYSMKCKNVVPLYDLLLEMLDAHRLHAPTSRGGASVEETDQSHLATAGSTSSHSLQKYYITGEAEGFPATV
Kind of data set: Estrogen receptor affinity. It is filed as binding.

Another data set has as its target ERβ receptor (Homo sapiens, UniProt Q92731). The data set is described as follows: Estrogen receptor affinity. It is filed as binding.

ERβ receptor, sequence (Q92731 whole entry): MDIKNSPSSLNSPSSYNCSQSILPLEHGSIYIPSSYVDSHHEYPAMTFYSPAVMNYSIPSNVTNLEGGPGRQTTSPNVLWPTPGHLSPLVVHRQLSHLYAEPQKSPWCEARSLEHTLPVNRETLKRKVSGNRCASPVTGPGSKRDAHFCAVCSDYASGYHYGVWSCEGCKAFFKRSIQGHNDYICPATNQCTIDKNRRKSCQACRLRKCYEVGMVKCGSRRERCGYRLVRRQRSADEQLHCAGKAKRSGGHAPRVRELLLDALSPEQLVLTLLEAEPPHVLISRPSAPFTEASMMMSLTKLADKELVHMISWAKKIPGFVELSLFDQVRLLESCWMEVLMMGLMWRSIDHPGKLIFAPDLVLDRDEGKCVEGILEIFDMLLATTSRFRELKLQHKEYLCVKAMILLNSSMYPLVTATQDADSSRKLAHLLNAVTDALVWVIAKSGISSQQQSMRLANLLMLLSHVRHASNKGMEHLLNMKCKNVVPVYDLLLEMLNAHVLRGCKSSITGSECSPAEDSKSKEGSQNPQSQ

With `C[C@]12CC[C@@H]3c4ccc(O)cc4CC[C@H]3[C@@H]1[C@@H](O)[C@@H](O)[C@@H]2O` [estetrol, 1,3,5 (10)-estratrien-3,15α,16α,17β-tetrol], the tolerability / side-effects entry in the data set on premature LH-surge [1] is “well tolerated without significant side-effects”; with premature LH-surge [2] (oral 1-80 mg per day), “well tolerated and without significant side-effects”. Moreover, the “prevention of a premature LH-surge” value with premature LH-surge [1] (from day 6 of FSH treatment up to and including day of hCG, 10 women) is “efficacious in preventing a premature LH-surge”. For the same compound, the vital pregnancies entry with premature LH-surge [1] (COH/IVF with embryo transfer) is on record as “Vital pregnancies occur”. In the data set with premature LH-surge [2] (higher oral dosages vs daily subcutaneous 0.25 mg ganirelix), the “prevention of premature LH-surges compared with ganirelix” value was “equally effective to parenteral ganirelix”. For the same compound, the “prevention of premature LH-surges” value in the data set on premature LH-surge [2] (oral 1, 5, 10, 20, 40 or 80 mg per day) was “dose dependent prevention of premature LH-surges”. Besides, the “vital pregnancy rates compared with ganirelix” value in the data set on premature LH-surge [2] (oral E4 vs daily subcutaneous 0.25 mg ganirelix) is “trend to be superior to ganirelix treated patients”. Moreover, the “affinity for the ERα receptor” value on ERα receptor is “relatively high affinity”. Besides, the “affinity for the ERβ receptor” value on ERβ receptor is “relatively low affinity”.
